# Read-outs that look alike come from different tables or passages of the source.
# How the values were obtained:
# [1] = molecular target: human M1 receptor (Homo sapiens (Human), UniProt P11229); assay: Radioligand (tritiated N-methylscopolamine) binding assay, M1
# Description: (§1) Binding affinity (Ki) of compounds was measured by inhibition of radioligand binding to membranes from CHO cells expressing human M1, M2, M3, M4 and M5 receptors. Membranes were prepared by nitrogen cavitation and differential centrifugation as previously described (Hoare et al., Mol. Pharmacol. 2003 March; 63(3): 751-65). The radioligand employed was tritiated N-methylscopolamine, used at a concentration of 1.5 nM. A dose-response of twelve concentrations of compound was used, ranging from 10 μM to […]. The assay buffer was 50 mM HEPES, 100 mM NaCl, 5 mM MgCl2, 1 mM ethylenediaminetetraacetic acid, pH-adjusted to pH 7.4. Membranes, radioligand and compound were incubated together for 90 minutes at 37° C., in a total volume of 150 μl in a 96-well plate. Receptor-bound radioligand was then collected by harvesting the assay over glass fiber filters pretreated with polyethylenimine to trap the cell membranes, using rapid vacuum filtration. Harvesting and radioactivity counting was conducted as previously described (see, e.g., Hoare et al., Mol. Pharmacol. 2003 63(3):751-65); Erratum at Mol. Pharmacol. 2005 July; 68(1): 260).
# [2] = molecular target: human M2 receptor (Homo sapiens (Human), UniProt P08172); assay: Radioligand (tritiated N-methylscopolamine) binding assay, M2
# Chain of human M2 receptor (P08172 whole entry): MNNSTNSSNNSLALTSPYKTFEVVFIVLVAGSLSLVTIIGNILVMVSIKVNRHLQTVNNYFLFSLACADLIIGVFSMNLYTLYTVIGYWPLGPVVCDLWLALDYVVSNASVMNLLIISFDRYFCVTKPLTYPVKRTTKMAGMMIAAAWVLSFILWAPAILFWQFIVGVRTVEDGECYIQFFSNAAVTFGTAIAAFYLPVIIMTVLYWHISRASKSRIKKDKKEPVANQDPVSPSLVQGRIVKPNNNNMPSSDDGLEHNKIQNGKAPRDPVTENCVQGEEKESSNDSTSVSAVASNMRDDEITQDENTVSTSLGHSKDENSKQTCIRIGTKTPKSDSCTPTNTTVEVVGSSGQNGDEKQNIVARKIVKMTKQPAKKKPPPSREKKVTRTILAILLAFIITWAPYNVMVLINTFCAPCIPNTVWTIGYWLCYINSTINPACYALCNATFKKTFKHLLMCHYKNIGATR
# Description: as §1
# [3] = molecular target: human M3 receptor (Homo sapiens (Human), UniProt P20309); assay: Radioligand (tritiated N-methylscopolamine) binding assay, M3; details: CHO cell membranes expressing human M3; 1.5 nM tritiated N-methylscopolamine; 90 min, 37° C.; read-out: Ki against M3 receptor (Table 21, M3)
# Chain of human M3 receptor (P20309 whole entry): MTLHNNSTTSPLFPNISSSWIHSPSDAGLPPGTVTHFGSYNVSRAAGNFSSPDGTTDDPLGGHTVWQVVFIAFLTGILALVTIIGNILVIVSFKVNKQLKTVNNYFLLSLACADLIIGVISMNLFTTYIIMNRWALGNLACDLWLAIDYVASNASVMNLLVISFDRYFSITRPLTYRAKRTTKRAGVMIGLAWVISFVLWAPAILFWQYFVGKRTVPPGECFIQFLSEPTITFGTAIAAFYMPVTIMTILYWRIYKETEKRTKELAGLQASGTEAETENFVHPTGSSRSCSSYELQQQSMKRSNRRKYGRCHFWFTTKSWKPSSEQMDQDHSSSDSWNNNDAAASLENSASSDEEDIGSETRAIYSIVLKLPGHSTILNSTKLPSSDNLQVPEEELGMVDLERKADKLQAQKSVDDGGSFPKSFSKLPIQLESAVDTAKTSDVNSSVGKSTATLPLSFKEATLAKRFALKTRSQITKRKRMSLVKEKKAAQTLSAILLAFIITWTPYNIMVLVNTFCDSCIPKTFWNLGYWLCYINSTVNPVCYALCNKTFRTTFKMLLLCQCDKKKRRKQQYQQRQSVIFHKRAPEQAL
# Description: as §1
# [4] = molecular target: human M4 receptor (Homo sapiens (Human), UniProt P08173); assay: Radioligand (tritiated N-methylscopolamine) binding assay, M4; details: Ki against the M4 receptor; membranes from CHO cells expressing human M4; tritiated N-methylscopolamine 1.5 nM; read-out: Ki
# Chain of human M4 receptor (P08173 whole entry): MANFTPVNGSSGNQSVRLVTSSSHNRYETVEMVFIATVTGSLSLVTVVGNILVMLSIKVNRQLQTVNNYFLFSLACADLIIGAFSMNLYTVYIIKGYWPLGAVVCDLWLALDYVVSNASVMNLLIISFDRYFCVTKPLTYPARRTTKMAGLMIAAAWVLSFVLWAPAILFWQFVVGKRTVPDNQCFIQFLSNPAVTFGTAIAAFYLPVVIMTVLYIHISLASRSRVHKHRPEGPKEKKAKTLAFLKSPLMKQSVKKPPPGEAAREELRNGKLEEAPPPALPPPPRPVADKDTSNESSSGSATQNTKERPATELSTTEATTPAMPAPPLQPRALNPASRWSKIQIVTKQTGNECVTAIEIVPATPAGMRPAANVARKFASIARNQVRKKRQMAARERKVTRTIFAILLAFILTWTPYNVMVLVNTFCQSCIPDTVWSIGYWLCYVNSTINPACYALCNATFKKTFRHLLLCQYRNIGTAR
# Procedure, shortened: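 Membranes came from recombinant CHO cells expressing human muscarinic subtypes and were incubated with compound and [3H]NMS (1.5 nM) in HEPES/NaCl/MgCl2/EDTA buffer, pH 7.4, at 37° C for 90 min. Twelve-point dose-response (printed 10–[…]). Filter-bound radioactivity was counted and Ki values derived.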
# [5] = molecular target: human M5 receptor (Homo sapiens (Human), UniProt P08912); assay: Radioligand (tritiated N-methylscopolamine) binding assay, M5
# Chain of human M5 receptor (P08912 whole entry): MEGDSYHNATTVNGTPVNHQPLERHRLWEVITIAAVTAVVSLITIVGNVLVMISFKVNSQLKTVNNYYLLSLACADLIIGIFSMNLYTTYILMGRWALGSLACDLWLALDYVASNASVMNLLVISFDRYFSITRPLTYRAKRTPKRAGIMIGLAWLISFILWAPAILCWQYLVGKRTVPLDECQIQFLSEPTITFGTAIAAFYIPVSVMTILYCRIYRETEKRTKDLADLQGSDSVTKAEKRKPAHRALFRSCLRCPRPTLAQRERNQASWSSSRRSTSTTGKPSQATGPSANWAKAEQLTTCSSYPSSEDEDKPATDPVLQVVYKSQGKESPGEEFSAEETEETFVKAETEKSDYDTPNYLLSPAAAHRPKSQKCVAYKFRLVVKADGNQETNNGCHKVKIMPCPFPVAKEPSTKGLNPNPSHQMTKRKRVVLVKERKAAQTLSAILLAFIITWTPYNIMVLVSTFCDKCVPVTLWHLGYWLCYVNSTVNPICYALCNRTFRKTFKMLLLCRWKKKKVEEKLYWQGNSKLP
# Description: as §1
# [6] = CHO cell membranes expressing human M1, 1.5 nM tritiated N-methylscopolamine, 90 min, 37° C., read-out: Ki against M1 receptor (Table 21, M1)
# [7] = CHO cell membranes expressing human M2, 1.5 nM tritiated N-methylscopolamine, 90 min, 37° C., read-out: Ki against M2 receptor (Table 21, M2)
# [8] = CHO cell membranes expressing human M5, 1.5 nM tritiated N-methylscopolamine, 90 min, 37° C., read-out: Ki against M5 receptor (Table 21, M5)
# Chain of human M1 receptor (P11229 whole entry): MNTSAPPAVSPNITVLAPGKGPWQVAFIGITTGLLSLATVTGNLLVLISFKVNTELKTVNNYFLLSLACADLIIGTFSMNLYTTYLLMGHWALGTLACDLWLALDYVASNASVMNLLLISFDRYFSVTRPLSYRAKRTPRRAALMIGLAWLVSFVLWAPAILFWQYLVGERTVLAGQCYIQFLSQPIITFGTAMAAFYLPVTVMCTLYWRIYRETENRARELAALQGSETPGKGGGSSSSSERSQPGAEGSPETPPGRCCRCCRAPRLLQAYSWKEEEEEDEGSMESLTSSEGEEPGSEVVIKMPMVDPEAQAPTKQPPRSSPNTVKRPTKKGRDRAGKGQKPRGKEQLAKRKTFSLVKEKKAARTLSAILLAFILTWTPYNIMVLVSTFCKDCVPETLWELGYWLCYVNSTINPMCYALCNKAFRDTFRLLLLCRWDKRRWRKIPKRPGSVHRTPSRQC
"Ki [1, 6] [nM]","Ki [2, 7] [nM]",Ki [3] [nM],Ki [4] [nM],"Ki [5, 8] [nM]",Compound,Ki [1] [nM],Ki [2] [nM],Ki [5] [nM]
100 to 1000,100 to 1000,> 1000,< 10,> 1000,"Cc1nc(N2CCN(C(=O)NCCC3CCN(Cc4ccccc4)CC3)[C@H](C)C2)ccc1F [4-19, (2R)-N-[2-(1-benzylpiperidin-4-yl)ethyl]-4-(5-fluoro-6-methylpyridin-2-yl)-2-methylpiperazine-1-carboxamide]",–,–,–
100 to 1000,10 to 100,100 to 1000,< 10,> 1000,"C[C@@H]1CN(c2cnc(C(F)(F)F)nc2)C[C@H](C)N1C(=O)NCCC1CCN(Cc2ccc3[nH]ccc3c2)CC1 [6-50, (2R,6S)-N-{2-[1-(1H-indol-5-ylmethyl)piperidin-4-yl]ethyl}-2,6-dimethyl-4-[2-(trifluoromethyl)pyrimidin-5-yl]piperazine-1-carboxamide]",–,–,–
10 to 100,10 to 100,100 to 1000,< 10,100 to 1000,"C[C@H]1CN(c2ccc(C(F)(F)F)cn2)CCC1C(=O)NCCC1CCN(Cc2ccccc2)CC1 (stereo partly drawn) [10-80, (3R)-N-[2-(1-benzylpiperidin-4-yl)ethyl]-3-methyl-1-[5-(trifluoromethyl)pyridin-2-yl]piperidine-4-carboxamide]",–,–,–
> 1000,100 to 1000,> 1000,< 10,> 1000,"O=C(NCCC1CCN(Cc2ccccc2)CC1)N1CCN(c2ccc(C(F)(F)F)cc2)CC1 [4-76, N-[2-(1-benzylpiperidin-4-yl)ethyl]-4-[4-(trifluoromethyl)phenyl]piperazine-1-carboxamide]",–,–,–
100 to 1000,10 to 100,> 1000,< 10,> 1000,"C[C@@H]1CN(c2ncc(Cl)cn2)CCN1C(=O)NCCC1CCN(Cc2ccccc2)CC1 [5-22, (2R)-N-[2-(1-benzylpiperidin-4-yl)ethyl]-4-(5-chloropyrimidin-2-yl)-2-methylpiperazine-1-carboxamide]",–,–,–
100 to 1000,100 to 1000,> 1000,< 10,> 1000,"C[C@@H]1CN(c2ccc(OC(F)(F)F)cn2)CCN1C(=O)NCCC1CCN(Cc2ccccc2)CC1 [3-13, (2R)-N-[2-(1-benzylpiperidin-4-yl)ethyl]-2-methyl-4-[5-(trifluoromethoxy)pyridin-2-yl]piperazine-1-carboxamide]",–,–,–
100 to 1000,100 to 1000,> 1000,< 10,> 1000,"Cc1c(C(=O)NCCC2(O)CCN(Cc3ccccc3)CC2)cnc2cc(-c3cccc(C(F)(F)F)c3)nn12 [17-3, N-[2-(1-benzyl-4-hydroxypiperidin-4-yl)ethyl]-7-methyl-2-[3-(trifluoromethyl)phenyl]pyrazolo[1,5-a]pyrimidine-6-carboxamide]",–,–,–
100 to 1000,10 to 100,> 1000,< 10,> 1000,COc1ccc(N2C[C@@H](C)N(C(=O)NCCC3CCN(Cc4ccccc4)CC3)[C@@H](C)C2)cc1C#N [22-24],–,–,–
> 1000,10 to 100,> 1000,< 10,> 1000,"C[C@@H]1CN(c2ncc(C#N)cn2)C[C@H](C)N1C(=O)NCCC1CCN(Cc2ccc(F)cc2)CC1 [6-48, (2R,6S)-4-(5-cyanopyrimidin-2-yl)-N-(2-{1-[(4-fluorophenyl)methyl]-piperidin-4-yl}ethyl)-2,6-dimethylpiperazine-1-carboxamide]",–,–,–
100 to 1000,10 to 100,100 to 1000,< 10,100 to 1000,"O=C(NCCC1CCN(Cc2ccccc2)CC1)c1ccc(-c2ccc(OC(F)(F)F)cc2)cc1F [9-6, N-[2-(1-benzylpiperidin-4-yl)ethyl]-2-fluoro-4-[4-(trifluoromethoxy)phenyl]benzamide]",–,–,–
100 to 1000,10 to 100,100 to 1000,< 10,> 1000,"C[C@@H]1CN(c2ncc(C(F)(F)F)cc2F)CCN1C(=O)NCCC1CCN(Cc2ccccc2)CC1 [3-10, (2R)-N-[2-(1-benzylpiperidin-4-yl)ethyl]-4-[3-fluoro-5-(trifluoromethyl)pyridin-2-yl]-2-methylpiperazine-1-carboxamide]",–,–,–
100 to 1000,10 to 100,> 1000,< 10,> 1000,"C[C@H]1CN(c2ccc(F)c(C#N)c2)CCN1C(=O)NCCC1CCN(Cc2ccccc2)CC1 [4-20, (2S)-N-[2-(1-benzylpiperidin-4-yl)ethyl]-4-(3-cyano-4-fluorophenyl)-2-methylpiperazine-1-carboxamide]",–,–,–
> 1000,100 to 1000,> 1000,< 10,> 1000,"C[C@@H]1CN(c2cc(F)cc(C#N)c2)CCN1C(=O)NCCC1CCN(Cc2ccccc2)CC1 [3-11, (2R)-N-[2-(1-benzylpiperidin-4-yl)ethyl]-4-(3-cyano-5-fluorophenyl)-2-methylpiperazine-1-carboxamide]",–,–,–
> 1000,> 1000,> 1000,< 10,> 1000,"C[C@@H]1CN(c2cc(F)c(F)c(F)c2)CCN1C(=O)NC[C@H](O)C1CCN(Cc2ccccc2)CC1 [3-16, (2R)-N-[(2R)-2-(1-benzylpiperidin-4-yl)-2-hydroxyethyl]-2-methyl-4-(3,4,5-trifluorophenyl)piperazine-1-carboxamide]",–,–,–
100 to 1000,100 to 1000,> 1000,< 10,> 1000,"O=C(NCCC1(O)CCN(Cc2ccccc2)CC1)C1CCN(c2ccc(OC(F)(F)F)c(F)c2)CC1 [9-9, N-[2-(1-benzyl-4-hydroxypiperidin-4-yl)ethyl]-1-[3-fluoro-4-(trifluoromethoxy)phenyl]piperidine-4-carboxamide]",–,–,–
> 1000,100 to 1000,> 1000,< 10,> 1000,"Cc1c(C(=O)NCCC2CCN(Cc3ccccc3)CC2)cnc2cc(-c3cccc(C(F)(F)F)c3)nn12 [17-1, N-[2-(1-benzylpiperidin-4-yl)ethyl]-7-methyl-2-[3-(trifluoromethyl)phenyl]pyrazolo[1,5-a]pyrimidine-6-carboxamide]",–,–,–
100 to 1000,< 10,100 to 1000,< 10,100 to 1000,"C[C@@H]1CN(c2ncc(C#N)cn2)C[C@H](C)N1C(=O)NCCC1CCN(Cc2ccc3[nH]ccc3c2)CC1 [6-47, (2R,6S)-4-(5-cyanopyrimidin-2-yl)-N-{2-[1-(1H-indol-5-ylmethyl)-piperidin-4-yl]ethyl}-2,6-dimethylpiperazine-1-carboxamide]",–,–,–
> 1000,> 1000,> 1000,< 10,> 1000,"C[C@@H]1CN(c2cc(F)c(F)c(F)c2)CCN1C(=O)NCCC1(O)CCN(Cc2ccccc2)CC1 [7-1, (2R)-N-[2-(1-benzyl-4-hydroxypiperidin-4-yl)ethyl]-2-methyl-4-(3,4,5-trifluorophenyl)piperazine-1-carboxamide]",–,–,–
100 to 1000,100 to 1000,> 1000,< 10,> 1000,"C[C@@H]1CN(c2ncc(C(F)(F)F)c(N)n2)C[C@H](C)N1C(=O)NCCC1CCN(Cc2ccccc2)CC1 [5-28, (2R,6S)-4-[4-amino-5-(trifluoromethyl)pyrimidin-2-yl]-N-[2-(1-benzylpiperidin-4-yl)ethyl]-2,6-dimethylpiperazine-1-carboxamide]",–,–,–
100 to 1000,10 to 100,> 1000,< 10,> 1000,"C[C@@H]1CN(c2ccc(C(F)(F)F)cn2)CCN1C(=O)NCCC1CCN(Cc2ccccc2)CC1 [3-14, (2R)-N-[2-(1-benzylpiperidin-4-yl)ethyl]-2-methyl-4-[5-(trifluoromethyl)pyridin-2-yl]piperazine-1-carboxamide]",–,–,–

Compound,"Ki [1, 6] [nM]","Ki [2, 7] [nM]",Ki [3] [nM],Ki [4] [nM],"Ki [5, 8] [nM]",Ki [1] [nM],Ki [2] [nM],Ki [5] [nM]
C[C@@H]1CN(c2ccc(C#N)c(C(F)(F)F)c2)CCN1C(=O)NCCC1CCN(Cc2ccccc2)CC1 [22-31],–,–,> 1000,< 10,–,10 to 100,10 to 100,100 to 1000
"C[C@@H]1CN(c2ncc(C(F)(F)F)cn2)CCN1C(=O)NCCC1CCN(Cc2ccccc2)CC1 [3-9, (2R)-N-[2-(1-benzylpiperidin-4-yl)ethyl]-2-methyl-4-[5-(trifluoromethyl)pyrimidin-2-yl]piperazine-1-carboxamide]",100 to 1000,10 to 100,100 to 1000,< 10,> 1000,–,–,–
